Laboratory results published in ChEMBL document CHEMBL4368907 (J Med Chem, 2019).
Numbered stars: 1 amine (or outer) side, 2 acyl side, 3 side chain; on linkers, the order of the positions; unused ones are H or OH. Square brackets hold non-standard residues; d marks the D form. Peptide text beside a SMILES is read from it. * marks the point of attachment. Phe(4-CH2SO3H) = N[C@@H](Cc1ccc(CS(=O)(=O)O)cc1)C(=O)O; C18 diacid = O=C(O)CCCCCCCCCCCCCCCCC(=O)*; γGlu = O=C(O)[C@H](CCC(=O)[*:2])N[*:1]; βAsp = O=C(O)[C@H](CC(=O)[*:2])N[*:1]; NMeF = CN[C@@H](Cc1ccccc1)C(=O)O; NMeD = CN[C@@H](CC(=O)O)C(=O)O; dNMeD = CN[C@H](CC(=O)O)C(=O)O; Nle = CCCC[C@H](N)C(=O)O; AEEA = NCCOCCOCC(=O)O

Assays:
[1] = target: T1, Cholecystokinin receptor type A (Homo sapiens, UniProt P32238); assay: Displacement of [125I]-CCK-8 from human CCK1R expressed in human 1321N1 cell membranes after 2 hrs by SPA assay
T1 sequence (P32238 whole entry): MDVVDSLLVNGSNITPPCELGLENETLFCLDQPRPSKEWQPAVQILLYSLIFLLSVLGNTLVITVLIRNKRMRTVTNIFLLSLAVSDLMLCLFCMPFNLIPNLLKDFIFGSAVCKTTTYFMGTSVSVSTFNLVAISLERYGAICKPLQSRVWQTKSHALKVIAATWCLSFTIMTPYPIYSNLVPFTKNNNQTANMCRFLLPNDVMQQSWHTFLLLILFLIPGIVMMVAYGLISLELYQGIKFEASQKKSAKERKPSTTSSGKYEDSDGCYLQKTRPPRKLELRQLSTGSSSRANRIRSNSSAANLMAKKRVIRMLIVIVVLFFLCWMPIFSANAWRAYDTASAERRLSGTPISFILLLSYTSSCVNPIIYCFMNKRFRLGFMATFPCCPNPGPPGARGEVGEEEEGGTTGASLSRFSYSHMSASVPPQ

[2] = target: T1, Cholecystokinin receptor type A; assay: Agonist activity at human CCK1R expressed in human 1321N1 cells assessed as IP1 accumulation after 1 hr by HTRF assay; assay type: functional, cell-based
[3] = Drug metabolism in Ellegaard Gottingen minipig plasma assessed as C18d-gammaGlu-(OEG)2-Asp-Phe(4sm)-OH peptide metabolite formation at 5 nmol/kg, iv administered as single dose by LC-MS/MS analysis; assay type: ADME, organism-based, Sus scrofa; conditions: pig, in vivo
[4] = Drug metabolism in Ellegaard Gottingen minipig plasma assessed as C18d-gammaGlu-(OEG)2-Asp-Phe(4sm)-Nle-Gly-OH peptide metabolite formation at 5 nmol/kg, iv administered as single dose by LC-MS/MS analysis; assay type: ADME, organism-based, Sus scrofa; conditions: pig, in vivo
[5] = Drug metabolism in Ellegaard Gottingen minipig plasma assessed as C18d-gammaGlu-(OEG)2-Asp-Phe(4sm)-Nle-Gly-Trp-Nle-DMeAspOH peptide metabolite formation at 5 nmol/kg, iv administered as single dose by LC-MS/MS analysis; assay type: ADME, organism-based, Sus scrofa; conditions: pig, in vivo
albumin = albumin (Homo sapiens, UniProt P02768); assay: Binding affinity to human serum albumin at 500 nM after 2 hrs by LC-MS analysis; assay type: ADME; conditions: read-out: PB (converted)
[6] = Protein binding in Ellegaard Gottingen minipig plasma at 500 nM after 2 hrs by LC-MS analysis; assay type: ADME, cell-free, Sus scrofa; conditions: pig, read-out: PPB (converted)
Sus scrofa [7] = assay: Anti-obesity activity in lean Landrace Yorkshire Duroc pig assessed as food intake at 30 nmol/kg, sc measured up to 24 hrs post dose (reference value: 1.8 to 2.1 kg); assay type: functional
Sus scrofa [8] = assay: Anti-obesity activity in lean Landrace Yorkshire Duroc pig assessed as food intake at 30 nmol/kg, sc measured at 24 to 48 hrs post dose (reference value: 1.8 to 2.1 kg); assay type: functional
Sus scrofa [9] = assay: Anti-obesity activity in lean Landrace Yorkshire Duroc pig assessed as food intake at 30 nmol/kg, sc measured at 48 to 72 hrs post dose (reference value: 1.8 to 2.1 kg); assay type: functional
Sus scrofa [10] = assay: Anti-obesity activity in lean Landrace Yorkshire Duroc pig assessed as food intake at 30 nmol/kg, sc measured at 72 to 96 hrs post dose (reference value: 1.8 to 2.1 kg); assay type: functional
[11] = Plasma concentration in lean Landrace Yorkshire Duroc pig at 30 nmol/kg, sc measured after 96 hrs post dose; assay type: ADME, organism-based, Sus scrofa
[12] = Toxicity in lean Landrace Yorkshire Duroc pig at 30 nmol/kg, sc measured up to 96 hrs post dose; assay type: organism-based, Sus scrofa; conditions: in vivo
[13] = Chemical stability of the compound in sodium phosphate buffer assessed as loss of purity 1 mM at pH 7.4 at 37 degC after 1 week by UHLPC-UV analysis; assay type: physicochemical; conditions: read-out: Drug degradation
[14] = Chemical stability of the compound in sodium phosphate buffer assessed as loss of purity 1 mM at pH 7.4 at 37 degC after 2 weeks by UHLPC-UV analysis; assay type: physicochemical; conditions: read-out: Drug degradation
[15] = Drug metabolism in sodium phosphate buffer assessed as (2R,5S,8S,14S,17S,21S,44S)-8-((1H-indol-3-yl)methyl)-2-(((S)-1-amino-1-oxo-3-phenylpropan-2-yl)(methyl)carbamoyl)-5,14-dibutyl-3-methyl-4,7,10,13,16,19,23,32,41,46-decaoxo-17-(4-(sulfomethyl)benzyl)-25,28,34,37-tetraoxa-3,6,9,12,15,18,22,31,40,45-decaazadohexacontane-1,21,44,62-tetracarboxylic acid formation at 1 mM at pH 7.4 at 37 degC after 1 to 2 weeks by UHLPC-UV analysis
[16] = Terminal half life in Ellegaard Gottingen minipig at 5 nmol/kg, iv by LC-MS/MS analysis; assay type: ADME, organism-based, Sus scrofa; conditions: pig, in vivo, read-out: beta t1/2 (converted)
[17] = Drug level in sodium phosphate buffer treated with 1 mM (2R,5S,8S,14S,17S,20S,43S)-8-((1H-indol-3-yl)methyl)-2-(((S)-1-amino-1-oxo-3-phenylpropan-2-yl)(methyl)carbamoyl)-5,14-dibutyl-20-(carboxymethyl)-3-methyl-4,7,10,13,16,19,22,31,40,45-decaoxo-17-(4-(sulfomethyl)benzyl)-24,27,33,36-tetraoxa-3,6,9,12,15,18,21,30,39,44-decaazahenhexacontane-1,43,61-tricarboxylic acid assessed as compound formation at pH 7.4 at 37 degC after 1 to 2 weeks by UHLPC-UV analysis; assay type: physicochemical
[18] = Drug level in Ellegaard Gottingen minipig plasma treated with C18d-gammaGlu-(OEG)2-Asp-Phe(4sm)-Nle-Gly-Trp-Nle-DMeAspMePhe-NH2 at 5 nmol/kg, iv administered as single dose by LC-MS/MS analysis; assay type: ADME, organism-based, Sus scrofa; conditions: pig, in vivo
[19] = Chemical stability of the compound in sodium phosphate buffer assessed as loss of purity 0.5 mM at pH 7.4 at 37 degC after 1 week by UHLPC-UV analysis; assay type: physicochemical; conditions: read-out: Drug degradation
[20] = Chemical stability of the compound in sodium phosphate buffer assessed as purity 0.5 mM at pH 2.2 at 37 degC after 1 week by UHLPC-UV analysis; assay type: physicochemical; conditions: read-out: Stability

albumin, sequence (P02768 whole entry): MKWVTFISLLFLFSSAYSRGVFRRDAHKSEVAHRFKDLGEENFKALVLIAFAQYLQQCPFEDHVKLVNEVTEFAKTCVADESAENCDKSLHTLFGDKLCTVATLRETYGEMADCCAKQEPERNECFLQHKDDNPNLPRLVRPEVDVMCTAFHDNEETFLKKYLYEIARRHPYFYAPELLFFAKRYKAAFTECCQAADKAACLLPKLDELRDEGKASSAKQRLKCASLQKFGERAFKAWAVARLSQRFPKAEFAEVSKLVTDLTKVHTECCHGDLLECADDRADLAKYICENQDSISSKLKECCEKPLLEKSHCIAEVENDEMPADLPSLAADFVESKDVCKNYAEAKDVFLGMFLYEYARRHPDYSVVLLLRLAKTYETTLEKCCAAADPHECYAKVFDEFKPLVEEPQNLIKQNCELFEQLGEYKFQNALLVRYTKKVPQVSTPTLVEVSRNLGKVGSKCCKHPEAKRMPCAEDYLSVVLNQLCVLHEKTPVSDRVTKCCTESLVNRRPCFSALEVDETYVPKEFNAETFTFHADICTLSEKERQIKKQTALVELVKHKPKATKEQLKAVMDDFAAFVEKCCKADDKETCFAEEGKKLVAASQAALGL

SMILES	IC50 [1]	EC50 [2]	Activity (Sus scrofa [7])	Activity (Sus scrofa [8])	Activity (Sus scrofa [9])	Activity (Sus scrofa [10])	concentration at 96 h [11]	Activity [12]	further results
CCCC[C@H](NC(=O)[C@H](Cc1ccc(CS(=O)(=O)O)cc1)NC(=O)[C@H](CC(=O)O)NC(=O)COCCOCCNC(=O)COCCOCCNC(=O)CC[C@H](NC(=O)CCCCCCCCCCCCCCCCC(=O)O)C(=O)O)C(=O)NCC(=O)N[C@@H](Cc1c[nH]c2ccccc12)C(=O)N[C@@H](CCCC)C(=O)N(C)[C@H](CC(=O)O)C(=O)N(C)[C@@H](Cc1ccccc1)C(N)=O ({C18 diacid-γGlu-AEEA-AEEA}-D[Phe(4-CH2SO3H)][Nle]GW[Nle][dNMeD][NMeF]-NH2)	0.0525 nM	0.251 nM	1 kg	1.1 kg	1.5 kg	1.9 kg	84.9 nM	Non-Toxic	Drug metabolism [3]: Metabolite_Detected; Drug metabolism [4]: Metabolite_Detected; Drug metabolism [5]: Metabolite_Detected; fraction unbound at 2 h, 0.5 µM (albumin): 0.003; fraction unbound at 2 h, 0.5 µM [6]: 0.003; degraded at 168 h, 1000 µM [13]: 1.3%; degraded at 336 h, 1000 µM [14]: 2.2%; Drug metabolism [15]: Metabolite detected
CCCC[C@H](NC(=O)[C@H](Cc1ccc(CS(=O)(=O)O)cc1)NC(=O)C[C@H](NC(=O)COCCOCCNC(=O)COCCOCCNC(=O)CC[C@H](NC(=O)CCCCCCCCCCCCCCCCC(=O)O)C(=O)O)C(=O)O)C(=O)NCC(=O)N[C@@H](Cc1c[nH]c2ccccc12)C(=O)N[C@@H](CCCC)C(=O)N(C)[C@H](CC(=O)O)C(=O)N(C)[C@@H](Cc1ccccc1)C(N)=O ({C18 diacid-γGlu-AEEA-AEEA-βAsp}-[Phe(4-CH2SO3H)][Nle]GW[Nle][dNMeD][NMeF]-NH2)	0.0794 nM	0.316 nM	1.1 kg	1.5 kg	1.8 kg	1.7 kg	88.7 nM	Non-Toxic	half-life [16]: 106 h; Drug uptake [17]: Active
CCCC[C@H](NC(=O)[C@H](Cc1ccc(CS(=O)(=O)O)cc1)NC(=O)[C@H](CC(=O)O)NC(=O)COCCOCCNC(=O)COCCOCCNC(=O)CC[C@H](NC(=O)CCCCCCCCCCCCCCCCC(=O)O)C(=O)O)C(=O)NCC(=O)N[C@@H](Cc1c[nH]c2ccccc12)C(=O)N[C@@H](CCCC)C(=O)N(C)[C@@H](CC(=O)O)C(=O)O ({C18 diacid-γGlu-AEEA-AEEA}-D[Phe(4-CH2SO3H)][Nle]GW[Nle][NMeD]-OH)	–	–	–	–	–	–	–	–	Drug uptake [18]: Active
CCCC[C@H](NC(=O)[C@H](Cc1ccc(OS(=O)(=O)O)cc1)NC(=O)[C@H](CC(=O)O)NC(=O)COCCOCCNC(=O)COCCOCCNC(=O)CC[C@H](NC(=O)CCCCCCCCCCCCCCCCC(=O)O)C(=O)O)C(=O)NCC(=O)N[C@@H](Cc1c[nH]c2ccccc12)C(=O)N[C@@H](CCCC)C(=O)N[C@@H](CC(=O)O)C(=O)N[C@@H](Cc1ccccc1)C(N)=O	–	–	–	–	–	–	–	–	degraded at 168 h, 500 µM [19]: 0.8%; remaining at 168 h, 500 µM [20]: 22%
